Experimental findings from patent publication US20190249218A1, “Method, Medium and Kit for Detecting Multiple Aminoglycoside Resistance Including 16S rRNA Methylase Mediated Resistance in Gram-Negative Bacteria” (priority 2016, published 2019) are described below.

Values after ≈ are worked out from the molar mass of the structure shown. Where two headings read alike, the source gives them in different places.

In assay [1] the test system is P. mirabilis. Nature of the assay: MIC by broth microdilution. Format: cell-based, Proteus mirabilis. As for the experimental part: (§1) MICs of amikacin and gentamicin were determined using the broth microdilution method in cation-adjusted Mueller-Hinton broth, as recommended by the Clinical Laboratory Standard Institute (CLSI) guidelines (8). Amikacin and gentamicin sulfate (Fluorochem, Dertbyshire, UK) were tested over a range of dilutions from 0.25 to 256 μg/ml. A final inoculum of 5.10^5 CFU/ml of each strain was distributed in the 96 wells tray (Sarstedt, Ntimbrecht, Germany). All experiments were repeated in triplicate and E. coli ATCC 25922 was used as quality control. According to the CLSI breakpoints (9), Enterobacteriaceae isolates with gentamicin MICs≤4 and amikacin MICs≤16 mg/L were categorized as susceptible, while those with gentamicin MICs≥16 and amikacin MICs≥64 mg/L were categorized as resistant.
(§2) MICs of amikacin and gentamicin were determined as described above in Example 1.

Assay [2] has as its system P. aeruginosa. Nature of the assay: MIC by broth microdilution. Format: cell-based, Pseudomonas aeruginosa. As for the experimental part:
as §1, §2

Setting [3] is: isolate R2260, P. mirabilis, AG susceptible.

On to `NCC[C@H](O)C(=O)N[C@@H]1C[C@H](N)[C@@H](O[C@H]2O[C@H](CN)[C@@H](O)[C@H](O)[C@H]2O)[C@H](O)[C@H]1O[C@H]1O[C@H](CO)[C@@H](O)[C@H](N)[C@H]1O` [Amikacin], for which the MIC in assay [1] (Proteus mirabilis, isolate R2260, P. mirabilis, AG susceptible, read-out: MIC) is 4 µg/mL (≈ 6.83 µM); in assay [1] (Proteus mirabilis, strain R263, P. mirabilis, armA, read-out: MIC) it was above 512 µg/mL; in assay [1] (Proteus mirabilis, strain R2260, P. mirabilis, susceptible, read-out: MIC), 4 µg/mL (≈ 6.83 µM); in assay [2] (Pseudomonas aeruginosa, strain 3655, P. aeruginosa, APH(3′)-I + ANT(2″), read-out: MIC), 1 µg/mL; in assay [2] (Pseudomonas aeruginosa, strain 3658, P. aeruginosa, APH(3′)-I + ANT(4′)-II, read-out: MIC), above 128 µg/mL; in assay [2] (Pseudomonas aeruginosa, strain 28233, P. aeruginosa, APH(3′)-I + AAC(3)-I, read-out: MIC), 4 µg/mL. Also, the MIC in assay [2] (Pseudomonas aeruginosa, strain R191, P. aeruginosa, susceptible, read-out: MIC) stood at 8 µg/mL (≈ 13.7 µM). In assay [1] (setting [3]), the “Amikacin Phenotype” value is “S (amikacin MICs≤16 mg/L were categorized as susceptible)”.
Consider Gentamicin, for which the “Gentamicin Phenotype” value in assay [1] (setting [3]) is “S (gentamicin MICs≤4)”. Besides, the MIC in assay [1] (setting [3]) is 4 µg/mL; in assay [1] (strain R263, P. mirabilis, armA), above 256 µg/mL; in assay [1] (strain R2260, P. mirabilis, susceptible), 4 µg/mL; in assay [2] (strain 3655, P. aeruginosa, APH(3′)-I + ANT(2″)) it was 4 µg/mL; in assay [2] (strain 3656, P. aeruginosa, APH(3′)-I + ANT(4′)-II) it was 8 µg/mL; in assay [2] (strain 3658, P. aeruginosa, APH(3′)-I + ANT(4′)-II), 4 µg/mL. Also, the MIC came out at 1 µg/mL in assay [2] (strain 28233, P. aeruginosa, APH(3′)-I + AAC(3)-I) and 2 µg/mL in assay [2] (strain R191, P. aeruginosa, susceptible).
